Reference: PMC9495854, “Novel Phenothiazine/Donepezil-like Hybrids Endowed with Antioxidant Activity for a Multi-Target Approach to the Therapy of Alzheimer’s Disease” (Antioxidants, 2022)
Marks after values point to notes of the source that are not given here.

Columns and labels:
hAChE = target: T1, hAChE (Homo sapiens, UniProt P22303); experiment: biochemical; assay type: biochemical; conditions: mean ± SEM; for hAChE I% at 10 µM: inhibition at 10 µM
T1 construct: purchased
Procedure: The experiments were carried out using a properly modified version of Ellman’s spectrophotometric assay, adapted to a 96-well plate procedure. All reagents, including enzymes, were purchased from common suppliers. Incubation of the proper enzyme with the single compound at different concentrations was performed in clear flat-bottomed, 96-well plates (Greiner Bio-One GmbH, Frickenhausen, Germany) and in duplicate. […] Fluorescence measures were carried out using Tecan Infinite M1000 Pro multiplate reader (Tecan, Cernusco S.N., Italy). IC50 values and inhibition values were calculated as the mean of three independent experiments and are expressed as mean ± SEM [13].

FAAH Human recombinant = target: T2, FAAH Human recombinant (Homo sapiens, UniProt O00519); experiment: FAAH inhibition, fluorometric assay; assay type: biochemical; conditions: mean ± SEM; read-out: hFAAH (IC50)
T2 construct: purchased Cayman Chemical
T2 sequence (O00519 1-579): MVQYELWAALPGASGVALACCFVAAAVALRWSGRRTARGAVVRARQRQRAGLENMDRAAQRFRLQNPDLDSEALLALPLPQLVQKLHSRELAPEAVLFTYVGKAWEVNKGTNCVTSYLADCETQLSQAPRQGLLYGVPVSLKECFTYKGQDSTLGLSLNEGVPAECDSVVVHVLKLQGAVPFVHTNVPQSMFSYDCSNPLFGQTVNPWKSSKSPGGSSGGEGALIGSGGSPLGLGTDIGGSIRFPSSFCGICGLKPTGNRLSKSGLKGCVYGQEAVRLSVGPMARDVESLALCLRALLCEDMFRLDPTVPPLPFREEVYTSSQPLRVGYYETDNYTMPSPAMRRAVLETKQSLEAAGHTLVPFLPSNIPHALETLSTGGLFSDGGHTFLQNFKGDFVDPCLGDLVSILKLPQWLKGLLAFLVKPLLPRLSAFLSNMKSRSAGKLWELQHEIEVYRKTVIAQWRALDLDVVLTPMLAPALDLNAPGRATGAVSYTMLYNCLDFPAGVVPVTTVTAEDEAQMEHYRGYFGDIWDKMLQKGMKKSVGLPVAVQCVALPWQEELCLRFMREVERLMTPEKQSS
Procedure: The fatty acid amide hydrolase inhibition was measured for the final compounds using 96-well black flat-bottom microtiter NBS plates (COSTAR flat black). The total volume was 150 µL: the single hybrid was pre-incubated at different concentrations with the enzyme (FAAH Human recombinant, Cayman Chemical, Ann Arbor, MI, USA) in the specific fluorometric assay buffer (tris-HCl 125 mM, Na2EDTA · 2H2O 1 mM, pH = 9.0) for ten minutes at RT, using an orbital shaker. A 50 μL solution of the substrate (7-amino-4-methyl-2H-1-benzopyran-2-one-5Z,8Z,11Z,14Z-eicosatetraen-amide, at a final concentration of 5 µM) was then added. The plates were then incubated for 1 h at 37 °C in a Tecan Infinite M1000 Pro (Tecan, Cernusco S.N., Italy), reading fluorescence values from each well every 30s (λex = 340 nm, λem = 450 nm). The inhibitor activity was expressed as relative fluorescence units (RFU), using the values obtained from control wells lacking the inhibitor and blank wells lacking both inhibitor and enzyme to calculate percent inhibition values for each well. IC50 values are expressed as mean ± SEM of at least two independent measurements performed in triplicate.

[1] = DPPH radical scavenging assay; conditions: DPPH 100 µM in methanol, 30 min
Procedure: A previously reported method (Blois) with some modifications (Mishra, Ojha, & Chaudhury, 2012) was used to carry out the DPPH assay in 96-well microtiter plates. Each tested compound was dissolved in methanol, after which a freshly prepared solution of DPPH in methanol (100 µM final concentration) was added. Following vigorous stirring, each mixture was left in the dark for 30 min at room temperature, after which absorbance values for each well were read at 520 nm using a spectrophotometric plate reader (VICTOR^3 V multilabel plate reader, PerkinElmer). Antioxidant activity was determined as RSA% (radical scavenging activity). The value was calculated using following equation: RSA% = 100 × [(Ao − Ai)/Ao], where Ao and Ai represent DPPH absorbance in absence or in presence of antioxidant, respectively. Antiradical curves for calculating the EC50 values were obtained by testing each compound at several concentrations. Values of all parameters are expressed as mean ± SEM of at least three independent measurements in triplicate.

[2] = MTT cell viability assay, HepG2; assay type: cell-based; conditions: human, HepG2 cells; for IC50 at 1 h: HepG2, 1 h exposure; for IC50 at 24 h: HepG2, 24 h exposure, read-out: MTT cytotoxicity IC50 ± SEM HepG2 24 h
Procedure: Human hepatocellular liver carcinoma (HepG2) cell line and human neuroblastoma cell line, SH-SY5Y, were purchased from the American Type Culture Collection (ATCC, Manassas, VA, USA) and maintained at 37 °C in a humidified atmosphere (95% air and 5% carbon dioxide), and they were periodically screened for contamination. HepG2 cells were cultured in Eagle’s Minimum Essential Medium (MEM, Euroclone S.p.A., Pero, MI, Italy), supplemented with 10% Fetal Bovine Serum (FBS, Euroclone S.p.A., Pero, MI, Italy), 1% L-glutamine (Euroclone S.p.A., Pero, MI, Italy), 100 U/mL penicillin/streptomycin (Euroclone S.p.A., Pero, MI, Italy), 1% Non-Essential Amino Acids (NEAA, Euroclone S.p.A., Pero, MI, Italy). SH-SY5Y cells were grown in a 1:1 mixture of Dulbecco’s modified Eagle’s medium (DMEM)—high glucose (Euroclone S.p.A., Pero, MI, Italy) and Ham’s F12 Medium (Euroclone S.p.A., Pero, MI, Italy) supplemented with 10% FBS, 1% L-glutamine and 100 U/mL penicillin/streptomycin. For cell assays, cells were trypsinized using Trypsin-EDTA 1X in PBS (Euroclone S.p.A., Pero, MI, Italy).
HepG2 and SH-SY5Y cell viability was assessed as previously reported by using a conventional 3-(4,5-dimethylthiazol-2-yl)-2,5-diphenyltetrazolium bromide (MTT) assay. In brief, viable cells were seeded and grown for 24 h into a sterile 96-well cell culture cluster (Corning, Sigma-Aldrich, St. Louis, MO, USA) in a complete medium and maintained at 37 °C in a humidified atmosphere with 5% CO2. The cells were then added with different concentrations of each compound for a period of 1 h or 24 h. At the end, the culture medium was replaced by a solution of 0.5 mg/mL MTT (Sigma-Aldrich, St. Louis, MO, USA) in PBS. After 2 h of incubation at 37 °C in 5% CO2, the supernatant was carefully removed from each well, and the formazan crystals were dissolved in DMSO. The absorbance values were measured at 570 nm using Tecan Infinite M1000 Pro (Tecan, Cernusco S.N., Italy) and DMSO medium as blank solution. The results were reported as % cell viability = [optical density (OD) of tested compound/medium OD of control cells] × 100. The results are expressed as mean ± SEM of at least three independent measurements in triplicate.

T1 sequence (P22303 32-614): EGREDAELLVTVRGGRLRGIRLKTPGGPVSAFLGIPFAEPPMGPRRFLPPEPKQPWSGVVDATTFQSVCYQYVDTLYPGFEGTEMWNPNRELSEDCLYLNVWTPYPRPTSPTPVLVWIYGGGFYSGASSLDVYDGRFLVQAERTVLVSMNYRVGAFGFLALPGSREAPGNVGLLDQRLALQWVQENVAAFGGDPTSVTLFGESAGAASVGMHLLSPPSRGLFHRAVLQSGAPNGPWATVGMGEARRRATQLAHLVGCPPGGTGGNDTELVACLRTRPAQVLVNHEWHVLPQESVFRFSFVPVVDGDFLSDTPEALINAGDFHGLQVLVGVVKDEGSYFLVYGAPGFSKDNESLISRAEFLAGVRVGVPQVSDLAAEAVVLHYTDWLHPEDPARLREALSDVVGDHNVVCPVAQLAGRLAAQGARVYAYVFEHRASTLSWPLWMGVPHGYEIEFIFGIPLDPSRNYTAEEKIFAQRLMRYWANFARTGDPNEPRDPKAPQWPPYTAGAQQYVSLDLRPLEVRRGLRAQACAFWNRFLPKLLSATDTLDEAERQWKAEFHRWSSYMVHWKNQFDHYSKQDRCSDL

Row | Structure (SMILES) | IC50 (hAChE) | IC50 (FAAH Human recombinant) | EC50 (μmol/μmol of DPPH ± SEM) [1] | IC50 at 1 h [2] | IC50 at 24 h [2] | hAChE I% at 10 µM (hAChE)
1 | O=C(NCC1CCN(Cc2ccccc2)CC1)c1ccc2c(c1)Nc1ccccc1S2 [Compound 11a, N-((1-Benzylpiperidin-4-yl)methyl)-10H-phenothiazine-2-carboxamide] | 0.597 ± 0.064 µM | 22.6 ± 1.6 µM | 0.082 ± 0.007 μmol/μmol of DPPH | > 100 µM | 62.7 ± 0.7 µM | –
2 | O=C(NCC1CCN(Cc2ccccc2Cl)CC1)c1ccc2c(c1)Nc1ccccc1S2 [Compound 11b, N-((1-(2-Chlorobenzyl)piperidin-4-yl)methyl)-10H-phenothiazine-2-carboxamide] | – | 3.8 ± 0.9 µM | 0.139 ± 0.014 μmol/μmol of DPPH | > 100 µM | 27.7 ± 0.4 µM | 52% ± 1 ^b
3 | Cc1ccccc1CN1CCC(CNC(=O)c2ccc3c(c2)Nc2ccccc2S3)CC1 [Compound 11c, N-((1-(2-Methylbenzyl)piperidin-4-yl)methyl)-10H-phenothiazine-2-carboxamide] | – | 3.08 ± 0.44 µM | 0.117 ± 0.013 μmol/μmol of DPPH | > 100 µM | 35.2 ± 1.1 µM | 44% ± 2 ^b
4 | O=C(NCC1CCN(Cc2ccccc2F)CC1)c1ccc2c(c1)Nc1ccccc1S2 [Compound 11d, N-((1-(2-Fluorobenzyl)piperidin-4-yl)methyl)-10H-phenothiazine-2-carboxamide] | 1.75 ± 0.11 µM | 5.06 ± 0.4 µM | 0.126 ± 0.014 μmol/μmol of DPPH | > 100 µM | 41 ± 0.2 µM | –
5 | COc1cccc(CN2CCC(CNC(=O)c3ccc4c(c3)Nc3ccccc3S4)CC2)c1 [Compound 11e, N-((1-(3-Methoxybenzyl)piperidin-4-yl)methyl)-10H-phenothiazine-2-carboxamide] | – | 13 ± 3.4 µM | 0.104 ± 0.011 μmol/μmol of DPPH | > 100 µM | 14.9 ± 0.61 µM | 22% ± 4 ^b
6 | O=C(NCCN1CCN(Cc2ccccc2)CC1)c1ccc2c(c1)Nc1ccccc1S2 [Compound 12a, N-(2-(4-Benzylpiperazin-1-yl)ethyl)-10H-phenothiazine-2-carboxamide] | 0.943 ± 0.046 µM | 41.4 ± 0.9 µM | 0.182 ± 0.016 μmol/μmol of DPPH | > 100 µM | 28.8 ± 0.42 µM | –
7 | O=C(NCCN1CCN(Cc2ccccc2Cl)CC1)c1ccc2c(c1)Nc1ccccc1S2 [Compound 12b, N-(2-(4-(2-Chlorobenzyl)piperazin-1-yl)ethyl)-10H-phenothiazine-2-carboxamide] | 1.85 ± 0.15 µM | 6.31 ± 1.28 µM | 0.122 ± 0.011 μmol/μmol of DPPH | > 100 µM | > 100 µM | –
8 | Cc1ccccc1CN1CCN(CCNC(=O)c2ccc3c(c2)Nc2ccccc2S3)CC1 [Compound 12c, N-(2-(4-(2-Methylbenzyl)piperazin-1-yl)ethyl)-10H-phenothiazine-2-carboxamide] | – | 7.33 ± 0.86 µM | 0.145 ± 0.010 μmol/μmol of DPPH | > 100 µM | > 100 µM | 56% ± 3 ^b
9 | O=C(NCCN1CCN(Cc2ccccc2F)CC1)c1ccc2c(c1)Nc1ccccc1S2 [Compound 12d, N-(2-(4-(2-Fluorobenzyl)piperazin-1-yl)ethyl)-10H-phenothiazine-2-carboxamide] | 0.599 ± 0.112 µM | 9.65 ± 2.45 µM | 0.231 ± 0.026 μmol/μmol of DPPH | > 100 µM | 42.9 ± 1.81 µM | –
10 | CC(=O)N1c2ccccc2Sc2ccc(C(=O)NCCN3CCN(Cc4ccccc4Cl)CC3)cc21 [Compound 13, 10-Acetyl-N-(2-(4-(2-chlorobenzyl)piperazin-1-yl)ethyl)-10H-phenothiazine-2-carboxamide] | – | 16.9 ± 4.4 µM | – | > 100 µM | > 100 µM | 48% ± 5 ^b
